Measured values published in patent US7420001B2 (Wyeth, priority 2003, dated 2008).
Where two headings read alike, the source gives them in different places.

Experiments:
Aggrecanase-1 = target: T1, Aggrecanase-1 (Homo sapiens, UniProt O75173); test: Aggrecanase-1 FRET assay; type: biochemical; conditions: for IC50: rAgg1, WAAG-3R substrate, read-out: AGG-1 IC50
T1 sequence (O75173 213-837): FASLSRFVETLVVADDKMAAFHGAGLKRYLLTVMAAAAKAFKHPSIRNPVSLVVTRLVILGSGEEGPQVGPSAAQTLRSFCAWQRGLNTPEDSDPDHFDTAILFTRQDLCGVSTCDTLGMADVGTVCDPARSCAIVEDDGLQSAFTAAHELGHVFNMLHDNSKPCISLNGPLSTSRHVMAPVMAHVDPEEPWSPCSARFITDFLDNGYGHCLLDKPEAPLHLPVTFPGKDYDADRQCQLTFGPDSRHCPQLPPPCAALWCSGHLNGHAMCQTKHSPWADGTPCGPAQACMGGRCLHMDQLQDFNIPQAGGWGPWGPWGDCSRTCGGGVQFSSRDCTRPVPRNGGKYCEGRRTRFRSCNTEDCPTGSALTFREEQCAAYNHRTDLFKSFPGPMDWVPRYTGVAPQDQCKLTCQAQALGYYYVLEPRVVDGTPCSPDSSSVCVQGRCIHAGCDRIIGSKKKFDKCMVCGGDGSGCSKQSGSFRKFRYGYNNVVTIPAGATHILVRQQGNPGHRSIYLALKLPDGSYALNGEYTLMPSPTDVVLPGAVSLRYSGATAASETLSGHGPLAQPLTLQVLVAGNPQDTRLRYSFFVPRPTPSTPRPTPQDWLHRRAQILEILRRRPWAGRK
Protocol: h. Aggrecanase-1 FRET Assay:
The following protocol was used: • Fluorimeter was started and temperature set to 30° C., about 30 min before setting up the assay. The following reagents are used: • Buffer: 50 mM HEPES, pH 7.5, 100 mM NaCl, 5 mM CaCl2, 0.1% CHAPS, 5% glycerol. • rAgg1: 5 μg/ml (final concentration in the assay): • Substrate: WAAG-3R (MWT=1645.8, Anaspec, stored at 4° C.). Make a stock at 2 mg/ml in 100% DMSO. Measure the absorbance at 354 nm (ε=18172 M^−1 cm^−1) to determine the exact concentration. Dilute to 62.5 μM in buffer. Store unused 100% DMSO stock at −80° C. Final concentration of substrate in the assay is 25 μM. […] Make up inhibitors at 10× starting concentration in 100% DMSO. Perform serial dilutions (in duplicate) across the nunc plate in 100% DMSO; • Dilution plates: Nunc, polypropylene low binding (Nalgene) • Assay plate: Fluoronunc (Nalgene) • Fluorimeter: GeminiXS (Molecular Devices).; • The assay is performed as follows: The plates are set up so that the final column (12) is used for controls. Total reaction volume is 100 μl. Each compound is assayed in duplicate, so 4 compounds are screened per plate. • 1) Add buffer to the entire 96-well plate (30 ρl/well). • 2) Dilute rAgg1 to 25 μg/ml buffer just prior to addition on the plate. Add 20 μl/well to all wells. Mix 6 times. • 3) Add 10 μl/well of 10× inhibitors from the working plate, except column 12. Mix 6 times. […] Mix 6 times.
The reaction is monitored for 30-40 min at 30° C. λex: 340 nm and λ em: 420 nm). The fluorescence is linear during this time and the slope of the line (Vmax/sec) represents the initial reaction rate, ν. The maximal rate of cleavage of substrate is determined in the absence of inhibitor. The percent inhibition of activity in the presence of inhibitor is calculated as follows:
[formula] The IC50 was obtained by fitting the initial rate, ν, or % inhibition at each concentration of inhibitor to the following equation in Excel. y=(a−d)/(1+C/IC50)^n)+d This model describes a sigmoidal curve with an adjustable baseline, […]. y is the % inhibition or initial rate of reaction, C is the concentration of inhibitor under test. a is the limiting response as C approaches zero. […] The sign of n is positive when the response increases with increasing dose and is negative when the response decreases with increasing dose (inhibition).

MMP-13 = target: T2, MMP-13 (Homo sapiens, UniProt P45452); test: In-vitro fluorescence assay of MMP-13 activity; type: biochemical
T2 construct: made in house

MMP-2 = target: T3, MMP-2 (Homo sapiens, UniProt P08253); test: In-vitro fluorescence assay of MMP-2 activity; type: biochemical
T3 construct: purchased Oncogene Research Products (Calbiochem) PF023
T3 sequence (P08253 110-660): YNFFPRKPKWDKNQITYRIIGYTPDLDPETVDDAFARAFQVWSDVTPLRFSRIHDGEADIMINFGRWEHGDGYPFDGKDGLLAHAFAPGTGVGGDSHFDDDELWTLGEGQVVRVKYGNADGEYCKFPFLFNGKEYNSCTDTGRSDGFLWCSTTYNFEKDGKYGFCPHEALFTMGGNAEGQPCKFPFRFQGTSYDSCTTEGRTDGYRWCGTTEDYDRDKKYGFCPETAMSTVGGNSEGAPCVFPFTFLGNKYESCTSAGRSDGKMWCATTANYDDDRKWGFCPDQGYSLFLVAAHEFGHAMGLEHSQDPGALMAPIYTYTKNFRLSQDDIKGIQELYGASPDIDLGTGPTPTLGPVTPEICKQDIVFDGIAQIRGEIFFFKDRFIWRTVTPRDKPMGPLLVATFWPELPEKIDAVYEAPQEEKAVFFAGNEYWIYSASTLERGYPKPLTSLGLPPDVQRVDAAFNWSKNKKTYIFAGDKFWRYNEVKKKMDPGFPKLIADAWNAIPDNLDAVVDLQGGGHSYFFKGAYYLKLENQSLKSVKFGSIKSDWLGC

MMP-1 = target: T4, MMP-1 (Homo sapiens, UniProt P03956)
T4 sequence (P03956 100-269 limits assumed): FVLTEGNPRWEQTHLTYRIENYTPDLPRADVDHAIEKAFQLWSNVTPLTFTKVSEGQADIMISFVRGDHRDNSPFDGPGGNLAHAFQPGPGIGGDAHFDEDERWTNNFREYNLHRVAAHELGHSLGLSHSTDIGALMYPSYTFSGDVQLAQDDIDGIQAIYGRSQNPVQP

MMP-14 = target: T5, MMP-14 (Homo sapiens, UniProt P50281); test: In-vitro fluorescence assay of MMP-14 activity; type: biochemical
T5 construct: 20 kDa; purchased Chemicon International, Inc. CC 1041

MMP-12 = target: T6, MMP-12 (Homo sapiens, UniProt P39900); test: In vitro fluorescence assay of MMP-12 activity; type: biochemical; conditions: recombinant human MMP-12
T6 construct: made in house

[1] = recombinant human catalytic domain of MMP-13, read-out: MMP-13 IC50
[2] = recombinant human MMP-2, read-out: MMP-2 IC50
[3] = recombinant human catalytic domain of MMP-14
[4] = MMP-13 IC50, recombinant human catalytic domain of MMP-13

T6 sequence (P39900 106-280 limits assumed): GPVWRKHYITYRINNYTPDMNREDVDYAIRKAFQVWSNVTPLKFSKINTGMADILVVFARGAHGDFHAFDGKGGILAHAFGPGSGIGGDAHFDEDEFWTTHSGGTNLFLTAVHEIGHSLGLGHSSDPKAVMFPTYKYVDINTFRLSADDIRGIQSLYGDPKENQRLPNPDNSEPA

| IC50 (MMP-13; [1]) [µM] | IC50 (MMP-2; [2]) [µM] | IC50 (MMP-1) [µM] | IC50 (MMP-12) [µM] | IC50 (MMP-14; [3]) [µM] | IC50 (Aggrecanase-1) [µM] | Structure (SMILES) | further results |
| --- | --- | --- | --- | --- | --- | --- | --- |
| 0.014 | 1 | 20.2 | 0.187 | 24.8 | – | Cc1c(C(=O)Nc2ccc(-c3ccc(S(=O)(=O)N[C@H](C(=O)O)C(C)C)cc3)cc2)oc2cccc(C(N)=O)c12 [Example 46, L-2-{4′-[(4-Carbamoyl-3-methyl-benzofuran-2-carbonyl)-amino]-biphenyl-4-sulfonylamino}-3-methyl-butyric acid] | – |
| – | – | – | – | – | 42 | CC(C)[C@@H](NS(=O)(=O)c1ccc(-c2ccc(N(C)C(=O)c3cc4ccccc4o3)cc2)cc1)C(=O)O [Example 75, D-2-{4′-[(Benzofuran-2-carbonyl)-methyl-amino]-biphenyl-4-sulfonylamino}-3-methyl-butyric acid] | – |
| 0.004 | 1.34 | 22 | 0.084 | 7.31 | – | Cc1c(C(=O)Nc2ccc(-c3ccc(S(=O)(=O)N[C@H](C(=O)O)C(C)C)cc3)cc2)oc2cccc(-c3cccnc3)c12 [Example 111, (S)-3-methyl-2-{4′-[(3-methyl-4-pyridin-3-yl-benzofuran-2-carbonyl)-amino]-biphenyl-4-sulfonylamino}-butyric acid] | – |
| 0.0008 | 0.116 | – | 0.0019 | – | – | Cc1ccc2oc(C(=O)Nc3ccc(-c4ccc(S(=O)(=O)N[C@H](C(=O)O)C(C)C)cc4)cc3)nc2c1 [Example 129, (S)-3-Methyl-2-{4′-[(5-methyl-benzooxazole-2-carbonyl)-amino]-biphenyl-4-sulfonylamino}-butyric acid] | – |
| 0.014 | 0.346 | – | – | 100 | 2.2 | Cc1cc(-c2ccc(S(=O)(=O)N[C@@H](C(=O)O)C(C)C)cc2)cc(C)c1OC(=O)c1oc2ccccc2c1C [Example 132, D-3-Methyl-benzofuran-2-carboxylic acid 4′-(1-carboxy-2-methyl-propylsulfamoyl)-3,5-dimethyl-biphenyl-4-yl ester] | – |
| – | – | – | – | – | 8.6 | CC(C)[C@@H](NS(=O)(=O)c1ccc(-c2ccc(OC(=O)c3ccoc3)cc2)cc1)C(=O)O [Example 145, N-{[4′-(3-Furoyloxy)-1,1′-biphenyl-4-yl]sulfonyl}-D-valine] | – |
| 0.0004 | – | 70 | 0.011 | 35 | – | CC(C)[C@H](NS(=O)(=O)c1ccc(-c2ccc(NC(=O)c3nc4ccccc4s3)cc2)cc1)C(=O)O [Example 151, L-2-{4′-[(Benzothiazole-2-carbonyl)-amino]-biphenyl-4-sulfonylamino}-3-methyl-butyric acid] | – |
| 0.012 | 9.3 | 90 | 0.097 | 11 | – | CC(C)[C@H](NS(=O)(=O)c1ccc(-c2ccc(NC(=O)c3cc4c(-c5ccccc5)nn(C)c4s3)cc2)cc1)C(=O)O [Example 167, (S)-3-Methyl-2-{4′-[(1-methyl-3-phenyl-1H-thieno[2,3-c]pyrazole-5-carbonyl)-amino]-biphenyl-4-sulfonylamino}-butyric acid] | – |
| 0.115 | – | – | – | – | 25.4 | CC(C)[C@@H](NS(=O)(=O)c1ccc(-c2ccc(NC(=O)c3cccs3)cc2)cc1)C(=O)O [Example 173, (R)-3-Methyl-2-{4′-[(thiophene-2-carbonyl)-amino]-biphenyl-4-sulfonylamino}-butyric acid] | – |

| Structure (SMILES) | IC50 (MMP-13; [1]) [µM] | IC50 (MMP-2; [2]) [µM] | IC50 (MMP-1) [µM] | IC50 (MMP-12) [µM] | IC50 (MMP-14; [3]) [µM] | IC50 (Aggrecanase-1) [µM] | further results |
| --- | --- | --- | --- | --- | --- | --- | --- |
| CC(C)C(NS(=O)(=O)c1ccc(-c2ccc(NS(=O)(=O)c3cccs3)cc2)cc1)C(=O)O (stereo in doubt) [Example 171, (R)-3-Methyl-2-[4′-(thiophene-2-sulfonylamino)-biphenyl-4-sulfonylamino]-butyric acid] | 1.09 | – | – | – | – | – | inhibition at 150 µM (Aggrecanase-1; read-out: AGG-1 % inhibition at a concentration): 60% |
| Cc1c(C(=O)Nc2ccc(-c3ccc(S(=O)(=O)N[C@H](C(=O)O)C(C)C)cc3)cc2)oc2cccc(C#N)c12 [Example 20, L-2-{4′-[(4-Cyano-3-methyl-benzofuran-2-carbonyl)-amino]-biphenyl-4-sulfonylamino}-3-methyl-butyric acid] | 0.0037 | 0.581 | 24 | 0.033 | – | – | IC50 (MMP-14): 5.45 µM |
| COc1c(Cl)ccc2oc(C(=O)Nc3ccc(-c4ccc(S(=O)(=O)N[C@H](C(=O)O)C(C)C)cc4)cc3)c(C)c12 [Example 116, (S)-2-{4′-[(5-Chloro-4-methoxy-3-methyl-benzofuran-2-carbonyl)-amino]-biphenyl-4-sulfonylamino}-3-methyl-butyric acid] | 0.0019 | 1.49 | – | 0.05 | 12.4 | – | IC50 (MMP-1; read-out: MMP-1 IC50, recombinant human catalytic domain of MMP-1): 34.1 µM |
| CC(C)[C@@H](NS(=O)(=O)c1ccc(-c2ccc(OC(=O)c3ccco3)cc2)cc1)C(=O)O [Example 144, N-{[4′-(2-Furoyloxy)-1,1′-biphenyl-4-yl]sulfonyl}-D-valine] | – | – | – | – | – | 11.6 | – |
| COc1c(Br)ccc2oc(COc3ccc(-c4ccc(S(=O)(=O)N[C@H](C(=O)O)C(C)C)cc4)cc3)c(C)c12 [Example 148, N-({4′-[(5-Bromo-4-methoxy-3-methyl-1-benzofuran-2-yl)methoxy]-1,1′-biphenyl-4-yl}sulfonyl)-L-valine] | – | – | – | – | – | 0.4 | IC50 (MMP-2): 0.136 µM; IC50 (MMP-13; [4]): 0.0014 µM |
| Cc1c(C(=O)Nc2ccc(-c3ccc(S(=O)(=O)N[C@H](C(=O)O)C(C)C)cc3)cc2)oc2cccc(Oc3ccccc3)c12 [Example 155, L-3-Methyl-2-{4′-[(3-methyl-4-phenoxy-benzofuran-2-carbonyl)-amino]-biphenyl-4-sulfonylamino}-butyric acid] | – | 5 | 25 | 0.508 | 8 | – | IC50 (MMP-13; [4]): 0.019 µM |
